System: JR251 or RBL cells
Assay: Store-operated calcium entry, either JR251 or RBL cells, or both
Assay type: cell-based
Procedure, shortened: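 FLIPR calcium-entry readout in fluo-4-loaded cells held in Ca2+-free HBSS before calcium add-back. For RBL-2H3, store depletion used thapsigargin for 25 min after a 5 min compound pre-incubation, and IC50 was based on the 7 s Upslope. For Orai1/STIM1 stable cells, compound was pre-incubated 30 min and IC50 was based on Peak-Basal.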

O=C(Nc1scc(-c2cc(F)c(Cl)cc2F)c1C(=O)O)c1cc2ccccc2o1 [2-(benzofuran-2-carboxamido)-4-(4-chloro-2,5-difluorophenyl)thiophene-3-carboxylic acid] was tested, and the IC50 was under 10 µM.

With Cc1cc(-c2csc(NC(=O)c3cc4ccccc4o3)c2C(=O)O)c(F)cc1Cl [2-(benzofuran-2-carboxamido)-4-(4-chloro-2-fluoro-5-methylphenyl)thiophene-3-carboxylic acid] the IC50 was under 10 µM.

Molecule O=C(Nc1scc(-c2cc(F)c(Cl)c(F)c2)c1C(=O)O)c1cc2ccccc2o1 [2-(benzofuran-2-carboxamido)-4-(4-chloro-3,5-difluorophenyl)thiophene-3-carboxylic acid] has an IC50 of under 10 µM.

Molecule O=C(Nc1scc(-c2ccc(C3CC3)c(F)c2F)c1C(=O)O)c1cc2ccccc2o1 [2-(benzofuran-2-carboxamido)-4-(4-cyclopropyl-2,3-difluorophenyl)thiophene-3-carboxylic acid] has an IC50 of under 10 µM.

For Cc1c(F)ccc(-c2csc(NC(=O)c3cc4ccccc4o3)c2C(=O)O)c1C [2-(benzofuran-2-carboxamido)-4-(4-fluoro-2,3-dimethylphenyl)thiophene-3-carboxylic acid], the IC50 was under 10 µM.

With Cc1cc(-c2csc(NC(=O)c3cc4ccccc4o3)c2C(=O)O)c(C)cc1F [2-(benzofuran-2-carboxamido)-4-(4-fluoro-2,5-dimethylphenyl)thiophene-3-carboxylic acid] the IC50 was under 10 µM.

For COc1cc(C)c(-c2csc(NC(=O)c3cc4ccccc4o3)c2C(=O)O)cc1C [2-(benzofuran-2-carboxamido)-4-(4-methoxy-2,5-dimethylphenyl)thiophene-3-carboxylic acid], the IC50 was under 10 µM.

Work on COc1cc(C)c(-c2csc(NC(=O)c3cc4ccccc4o3)c2C(=O)O)c(C)c1 [2-(benzofuran-2-carboxamido)-4-(4-methoxy-2,6-dimethylphenyl)thiophene-3-carboxylic acid] yielded an IC50 of under 10 µM.

Molecule COc1cc(Br)cc2cc(-c3csc(NC(=O)c4cc5ccccc5o4)c3C(=O)O)oc12 [2-(benzofuran-2-carboxamido)-4-(5-bromo-7-methoxybenzofuran-2-yl)thiophene-3-carboxylic acid] has an IC50 of under 10 µM.

Work on O=C(Nc1scc(-c2cc3cc(Br)ccc3o2)c1C(=O)O)c1cc2ccccc2o1 [2-(benzofuran-2-carboxamido)-4-(5-bromobenzofuran-2-yl)thiophene-3-carboxylic acid] yielded an IC50 of under 10 µM.

Work on Cc1cc(F)c(-c2csc(NC(=O)c3cc4ccccc4o3)c2C(=O)O)cc1Cl [2-(benzofuran-2-carboxamido)-4-(5-chloro-2-fluoro-4-methylphenyl)thiophene-3-carboxylic acid] yielded an IC50 of under 10 µM.

For O=C(Nc1scc(-c2cc3cc(Cl)ccc3o2)c1C(=O)O)c1cc2ccccc2o1 [2-(benzofuran-2-carboxamido)-4-(5-chlorobenzofuran-2-yl)thiophene-3-carboxylic acid], the IC50 was under 10 µM.

In the case of O=C(Nc1scc(-c2cc3cc(O)ccc3o2)c1C(=O)O)c1cc2ccccc2o1 [2-(benzofuran-2-carboxamido)-4-(5-hydroxybenzofuran-2-yl)thiophene-3-carboxylic acid], the IC50 is reported as under 10 µM.

In the case of COc1ccc2oc(-c3csc(NC(=O)c4cc5ccccc5o4)c3C(=O)O)cc2c1 [2-(benzofuran-2-carboxamido)-4-(5-methoxybenzofuran-2-yl)thiophene-3-carboxylic acid], the IC50 is reported as under 10 µM.

O=C(Nc1scc(-c2cc3ccc(Br)cc3o2)c1C(=O)O)c1cc2ccccc2o1 [2-(benzofuran-2-carboxamido)-4-(6-bromobenzofuran-2-yl)thiophene-3-carboxylic acid] showed an IC50 of under 10 µM.

With O=C(Nc1scc(-c2cc3cccc(OCc4ccccc4)c3o2)c1C(=O)O)c1cc2ccccc2o1 [2-(benzofuran-2-carboxamido)-4-(7-(benzyloxy)benzofuran-2-yl)thiophene-3-carboxylic acid] the IC50 was under 10 µM.

N#Cc1cccc2cc(-c3csc(NC(=O)c4cc5ccccc5o4)c3C(=O)O)oc12 [2-(benzofuran-2-carboxamido)-4-(7-cyanobenzofuran-2-yl)thiophene-3-carboxylic acid] showed an IC50 of under 10 µM.

O=C(Nc1scc(-c2cc3cccc(O)c3o2)c1C(=O)O)c1cc2ccccc2o1 [2-(benzofuran-2-carboxamido)-4-(7-hydroxybenzofuran-2-yl)thiophene-3-carboxylic acid] gave an IC50 of under 10 µM.

In the case of COc1cccc2cc(-c3csc(NC(=O)c4cc5ccccc5o4)c3C(=O)O)oc12 [2-(benzofuran-2-carboxamido)-4-(7-methoxybenzofuran-2-yl)thiophene-3-carboxylic acid], the IC50 is reported as under 10 µM.

O=C(Nc1scc(-c2cc3ccccc3o2)c1C(=O)O)c1cc2ccccc2o1 [2-(benzofuran-2-carboxamido)-4-(benzofuran-2-yl)thiophene-3-carboxylic acid] gave an IC50 of under 10 µM.

Work on O=C(Nc1scc(-c2ccc3occc3c2)c1C(=O)O)c1cc2ccccc2o1 [2-(benzofuran-2-carboxamido)-4-(benzofuran-5-yl)thiophene-3-carboxylic acid] yielded an IC50 of under 10 µM.

Cc1ccc(-c2csc(NC(=O)c3ccc4occc4c3)c2C(=O)O)c(F)c1F [2-(benzofuran-5-carboxamido)-4-(2,3-difluoro-4-methylphenyl)thiophene-3-carboxylic acid] was tested, and the IC50 was under 10 µM.

O=C(Nc1scc(-c2ccc(Br)c(F)c2F)c1C(=O)O)c1ccc2occc2c1 [2-(benzofuran-5-carboxamido)-4-(4-bromo-2,3-difluorophenyl)thiophene-3-carboxylic acid] showed an IC50 of under 10 µM.

For O=C(Nc1scc(-c2ccc(Br)cc2)c1C(=O)O)OCc1ccccc1 [2-(benzyloxycarbonylamino)-4-(4-bromophenyl)thiophene-3-carboxylic acid], the IC50 was under 10 µM.

Work on O=C(Nc1scc(-c2ccc(Cl)cc2)c1C(=O)O)OCc1ccccc1 [2-(benzyloxycarbonylamino)-4-(4-chlorophenyl)thiophene-3-carboxylic acid] yielded an IC50 of under 10 µM.

With O=C(O)c1c(-c2ccc(Cl)cc2Cl)csc1NC(=O)C1CC1 [2-(cyclopropanecarboxamido)-4-(2,4-dichlorophenyl)thiophene-3-carboxylic acid] the IC50 was under 10 µM.

For O=C(O)c1c(-c2ccc(Cl)c(Cl)c2)csc1NC(=O)C1CC1 [2-(cyclopropanecarboxamido)-4-(3,4-dichlorophenyl)thiophene-3-carboxylic acid], the IC50 was under 10 µM.

With Cc1ccc(-c2csc(NC(=O)c3ccc4ccccc4n3)c2C(=O)O)cc1 [2-(quinoline-2-carboxamido)-4-p-tolylthiophene-3-carboxylic acid] the IC50 was under 10 µM.

For O=C(Nc1scc(-c2ccc(C(F)(F)F)cc2)c1C(=O)O)c1cccs1 [2-(thiophene-2-carboxamido)-4-(4-(trifluoromethyl)phenyl)thiophene-3-carboxylic acid], the IC50 was under 10 µM.

In the case of Cc1ccc(-c2csc(NC(=O)c3cccs3)c2C(=O)O)cc1 [2-(thiophene-2-carboxamido)-4-p-tolylthiophene-3-carboxylic acid], the IC50 is reported as under 10 µM.

Molecule Cc1ccc(-c2csc(NC(=O)c3ccsc3)c2C(=O)O)cc1 [2-(thiophene-3-carboxamido)-4-p-tolylthiophene-3-carboxylic acid] has an IC50 of under 10 µM.

For Cc1ccc(-c2csc(NC(=O)c3nc4c(F)cccc4o3)c2C(=O)O)c(F)c1F [4-(2,3-difluoro-4-methylphenyl)-2-(4-fluorobenzo[d]oxazole-2-carboxamido)thiophene-3-carboxylic acid], the IC50 was under 10 µM.

Cc1ccc(-c2csc(NC(=O)c3nc4c(F)cccc4s3)c2C(=O)O)c(F)c1F [4-(2,3-difluoro-4-methylphenyl)-2-(4-fluorobenzo[d]thiazole-2-carboxamido)thiophene-3-carboxylic acid] was tested, and the IC50 was under 10 µM.

For Cc1ccc(-c2csc(NC(=O)c3cc4c(F)cccc4o3)c2C(=O)O)c(F)c1F [4-(2,3-difluoro-4-methylphenyl)-2-(4-fluorobenzofuran-2-carboxamido)thiophene-3-carboxylic acid], the IC50 was under 10 µM.

Cc1ccc(-c2csc(NC(=O)c3cc4c(F)cccn4n3)c2C(=O)O)c(F)c1F [4-(2,3-difluoro-4-methylphenyl)-2-(4-fluoropyrazolo[1,5-a]pyridine-2-carboxamido)thiophene-3-carboxylic acid] showed an IC50 of under 10 µM.

Cc1ccc(-c2csc(NC(=O)c3nc4cc(F)c(F)cc4o3)c2C(=O)O)c(F)c1F [4-(2,3-difluoro-4-methylphenyl)-2-(5,6-difluorobenzo[d]oxazole-2-carboxamido)thiophene-3-carboxylic acid] gave an IC50 of under 10 µM.

In the case of Cc1ccc(-c2csc(NC(=O)c3nc4cc(F)ccc4o3)c2C(=O)O)c(F)c1F [4-(2,3-difluoro-4-methylphenyl)-2-(5-fluorobenzo[d]oxazole-2-carboxamido)thiophene-3-carboxylic acid], the IC50 is reported as under 10 µM.

COc1ccc2oc(C(=O)Nc3scc(-c4ccc(C)c(F)c4F)c3C(=O)O)nc2c1 [4-(2,3-difluoro-4-methylphenyl)-2-(5-methoxybenzo[d]oxazole-2-carboxamido)thiophene-3-carboxylic acid] showed an IC50 of under 10 µM.

Molecule Cc1ccc(-c2csc(NC(=O)c3nc4ccc(F)cc4o3)c2C(=O)O)c(F)c1F [4-(2,3-difluoro-4-methylphenyl)-2-(6-fluorobenzo[d]oxazole-2-carboxamido)thiophene-3-carboxylic acid] has an IC50 of under 10 µM.

Cc1ccc(-c2csc(NC(=O)c3nc4cccc(F)c4o3)c2C(=O)O)c(F)c1F [4-(2,3-difluoro-4-methylphenyl)-2-(7-fluorobenzo[d]oxazole-2-carboxamido)thiophene-3-carboxylic acid] showed an IC50 of under 10 µM.

In the case of Cc1ccc(-c2csc(NC(=O)c3cc4cccc(O)c4o3)c2C(=O)O)c(F)c1F [4-(2,3-difluoro-4-methylphenyl)-2-(7-hydroxybenzofuran-2-carboxamido)thiophene-3-carboxylic acid], the IC50 is reported as under 10 µM.

With Cc1ccc(-c2csc(NC(=O)c3cn4ccsc4n3)c2C(=O)O)c(F)c1F [4-(2,3-difluoro-4-methylphenyl)-2-(imidazo[2,1-b]thiazole-6-carboxamido)thiophene-3-carboxylic acid] the IC50 was under 10 µM.

From US8394848B2, “Compounds that modulate intracellular calcium” (Calcimedica, Inc., priority 2008, dated 2013)
